In PubChem BioAssay AID1963444 (Molecular Pharmacology Branch, DTP, NCI, 2024):
Blank lines part the entries; values can stand above or below the molecule they belong to.

Tested on: HSSY-II complex spheroid growth, percent test/control
Assay: Anticancer human tumor HSSY-II cell line growth inhibition [Asc];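 further: spheroids exposed to drug for 7 days before reading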
Conditions: for IC50: curve of first compound; for viability, T/C: stronger effect = lower value
Procedure, shortened: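 Complex solid-tumor spheroids incorporating human endothelial and mesenchymal stem cells received single agents or combinations over half-log dilution ranges anchored to clinical Cmax.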

[1] = second compound 0.1 µM, first compound 0.0316 µM
[2] = second compound 0.1 µM, first compound 0.1 µM
[3] = second compound 0.1 µM, first compound 0.316 µM
[4] = second compound 0.1 µM, first compound 1 µM
[5] = second compound 0.1 µM, first compound 3.16 µM
[6] = second compound 0.1 µM, first compound 10 µM
[7] = second compound 0.316 µM, first compound 0.0316 µM
[8] = second compound 0.316 µM, first compound 0.1 µM
[9] = second compound 0.316 µM, first compound 0.316 µM
[10] = second compound 0.316 µM, first compound 1 µM
[11] = second compound 0.316 µM, first compound 3.16 µM
[12] = second compound 0.316 µM, first compound 10 µM
[13] = second compound 1 µM, first compound 0.0316 µM
[14] = second compound 1 µM, first compound 0.1 µM
[15] = second compound 1 µM, first compound 0.316 µM
[16] = second compound 1 µM, first compound 1 µM
[17] = second compound 1 µM, first compound 3.16 µM
[18] = second compound 1 µM, first compound 10 µM
[19] = second compound 3.16 µM, first compound 0.0316 µM
[20] = second compound 3.16 µM, first compound 0.1 µM
[21] = second compound 3.16 µM, first compound 0.316 µM
[22] = second compound 3.16 µM, first compound 1 µM
[23] = second compound 3.16 µM, first compound 3.16 µM
[24] = second compound 3.16 µM, first compound 10 µM
[25] = second compound 10 µM, first compound 0.0316 µM
[26] = second compound 10 µM, first compound 0.1 µM
[27] = second compound 10 µM, first compound 0.316 µM
[28] = second compound 10 µM, first compound 1 µM
[29] = second compound 10 µM, first compound 3.16 µM
[30] = second compound 10 µM, first compound 10 µM

IC50 (second compound 0.1 µM): 1440 nM
IC50 (second compound 0.316 µM): 1360 nM
IC50 (second compound 1 µM): 1150 nM
IC50 (second compound 3.16 µM): 1030 nM
IC50 (second compound 10 µM): 997 nM
Structure (SMILES): C=C(F)C(=O)N1CCN(c2nc(OCC3CCCN3C)nc3c2CCN(c2cccc4cccc(Cl)c24)C3)CC1CC#N (stereo not given) + Cc1c(S(C)(=O)=O)c(-c2cc(F)cc(N3CCN(c4ccc(NS(=O)(=O)c5ccc(NC(CCN6CCC(C(=O)OCCCP(=O)(O)O)CC6)CSc6ccccc6)c(S(=O)(=O)C(F)(F)F)c5)cc4)CC3)c2)c(-c2ccc(Cl)cc2)n1C(C)C
viability, T/C [1]: 106%
viability, T/C [2]: 106%
viability, T/C [3]: 86.7%
viability, T/C [4]: 72.7%
viability, T/C [5]: 0.9%
viability, T/C [6]: 0.13%
viability, T/C [7]: 105%
viability, T/C [8]: 92%
viability, T/C [9]: 84%
viability, T/C [10]: 68%
viability, T/C [11]: 0.59%
viability, T/C [12]: 0.11%
viability, T/C [13]: 98.4%
viability, T/C [14]: 97.3%
viability, T/C [15]: 95.6%
viability, T/C [16]: 57%
viability, T/C [17]: 0.36%
viability, T/C [18]: 0.12%
viability, T/C [19]: 104%
viability, T/C [20]: 98%
viability, T/C [21]: 97%
viability, T/C [22]: 51.6%
viability, T/C [23]: 0.27%
viability, T/C [24]: 0.13%
viability, T/C [25]: 106%
viability, T/C [26]: 113%
viability, T/C [27]: 85.3%
viability, T/C [28]: 55.7%
viability, T/C [29]: 0.4%
viability, T/C [30]: 0.22%

IC50 (second compound 0.1 µM): > 10000 nM
IC50 (second compound 0.316 µM): > 10000 nM
IC50 (second compound 1 µM): > 10000 nM
IC50 (second compound 3.16 µM): > 10000 nM
IC50 (second compound 10 µM): > 10000 nM
Structure (SMILES): C=CC(=O)N1CCN(c2nc(=O)n(-c3c(C)ccnc3C(C)C)c3nc(-c4c(O)cccc4F)c(F)cc23)C(C)C1 (stereo not given) + Cc1c(S(C)(=O)=O)c(-c2cc(F)cc(N3CCN(c4ccc(NS(=O)(=O)c5ccc(NC(CCN6CCC(C(=O)OCCCP(=O)(O)O)CC6)CSc6ccccc6)c(S(=O)(=O)C(F)(F)F)c5)cc4)CC3)c2)c(-c2ccc(Cl)cc2)n1C(C)C
viability, T/C [1]: 116%
viability, T/C [2]: 121%
viability, T/C [3]: 105%
viability, T/C [4]: 111%
viability, T/C [5]: 97.8%
viability, T/C [6]: 67.7%
viability, T/C [7]: 114%
viability, T/C [8]: 110%
viability, T/C [9]: 105%
viability, T/C [10]: 99.9%
viability, T/C [11]: 114%
viability, T/C [12]: 67.8%
viability, T/C [13]: 104%
viability, T/C [14]: 111%
viability, T/C [15]: 96.4%
viability, T/C [16]: 100%
viability, T/C [17]: 105%
viability, T/C [18]: 51.3%
viability, T/C [19]: 109%
viability, T/C [20]: 99.9%
viability, T/C [21]: 101%
viability, T/C [22]: 107%
viability, T/C [23]: 103%
viability, T/C [24]: 55%
viability, T/C [25]: 100%
viability, T/C [26]: 99.2%
viability, T/C [27]: 93.1%
viability, T/C [28]: 110%
viability, T/C [29]: 96.7%
viability, T/C [30]: 61.3%

IC50 (second compound 0.1 µM): 100 nM
IC50 (second compound 0.316 µM): 59.4 nM
IC50 (second compound 1 µM): 83.5 nM
IC50 (second compound 3.16 µM): 54.2 nM
IC50 (second compound 10 µM): 53.9 nM
Structure (SMILES): CCN1C(C(=O)NC23CCC(C(=O)O)(CC2)CC3)C(c2cccc(Cl)c2F)C2(C(=O)Nc3cc(Cl)ccc32)C12CCCCC2 (stereo not given) + Cc1c(S(C)(=O)=O)c(-c2cc(F)cc(N3CCN(c4ccc(NS(=O)(=O)c5ccc(NC(CCN6CCC(C(=O)OCCCP(=O)(O)O)CC6)CSc6ccccc6)c(S(=O)(=O)C(F)(F)F)c5)cc4)CC3)c2)c(-c2ccc(Cl)cc2)n1C(C)C
viability, T/C (second compound 0.1 µM, first compound 0.00949 µM): 106%
viability, T/C (second compound 0.1 µM, first compound 0.03 µM): 92.7%
viability, T/C (second compound 0.1 µM, first compound 0.0949 µM): 49.4%
viability, T/C (second compound 0.1 µM, first compound 0.3 µM): 19.4%
viability, T/C (second compound 0.1 µM, first compound 0.949 µM): 3.79%
viability, T/C (second compound 0.1 µM, first compound 3 µM): 0.58%
viability, T/C (second compound 0.316 µM, first compound 0.00949 µM): 102%
viability, T/C (second compound 0.316 µM, first compound 0.03 µM): 78.1%
viability, T/C (second compound 0.316 µM, first compound 0.0949 µM): 29.7%
viability, T/C (second compound 0.316 µM, first compound 0.3 µM): 11.1%
viability, T/C (second compound 0.316 µM, first compound 0.949 µM): 3.4%
viability, T/C (second compound 0.316 µM, first compound 3 µM): 0.3%
viability, T/C (second compound 1 µM, first compound 0.00949 µM): 104%
viability, T/C (second compound 1 µM, first compound 0.03 µM): 84.6%
viability, T/C (second compound 1 µM, first compound 0.0949 µM): 47.4%
viability, T/C (second compound 1 µM, first compound 0.3 µM): 9.68%
viability, T/C (second compound 1 µM, first compound 0.949 µM): 1.67%
viability, T/C (second compound 1 µM, first compound 3 µM): 0.19%
viability, T/C (second compound 3.16 µM, first compound 0.00949 µM): 94.3%
viability, T/C (second compound 3.16 µM, first compound 0.03 µM): 73.3%
viability, T/C (second compound 3.16 µM, first compound 0.0949 µM): 28%
viability, T/C (second compound 3.16 µM, first compound 0.3 µM): 4.69%
viability, T/C (second compound 3.16 µM, first compound 0.949 µM): 1.19%
viability, T/C (second compound 3.16 µM, first compound 3 µM): 0.17%
viability, T/C (second compound 10 µM, first compound 0.00949 µM): 92.8%
viability, T/C (second compound 10 µM, first compound 0.03 µM): 73.6%
viability, T/C (second compound 10 µM, first compound 0.0949 µM): 27.2%
viability, T/C (second compound 10 µM, first compound 0.3 µM): 4.78%
viability, T/C (second compound 10 µM, first compound 0.949 µM): 1.16%
viability, T/C (second compound 10 µM, first compound 3 µM): 0.26%

IC50 (second compound 0.1 µM): > 1000 nM
IC50 (second compound 0.316 µM): > 1000 nM
IC50 (second compound 1 µM): > 1000 nM
IC50 (second compound 3.16 µM): > 1000 nM
IC50 (second compound 10 µM): > 1000 nM
Structure (SMILES): CNC(C)C(=O)NC1CN(S(=O)(=O)c2cccc(S(=O)(=O)N3CCC4CCC(C(=O)NC(c5ccccc5)c5ccccc5)N4C(=O)C(NC(=O)C(C)NC)C3)c2)CCC2CCC(C(=O)NC(c3ccccc3)c3ccccc3)N2C1=O (stereo not given) + Cc1c(S(C)(=O)=O)c(-c2cc(F)cc(N3CCN(c4ccc(NS(=O)(=O)c5ccc(NC(CCN6CCC(C(=O)OCCCP(=O)(O)O)CC6)CSc6ccccc6)c(S(=O)(=O)C(F)(F)F)c5)cc4)CC3)c2)c(-c2ccc(Cl)cc2)n1C(C)C
viability, T/C (second compound 0.1 µM, first compound 0.00316 µM): 114%
viability, T/C (second compound 0.1 µM, first compound 0.01 µM): 100%
viability, T/C [1]: 103%
viability, T/C [2]: 90.6%
viability, T/C [3]: 96.9%
viability, T/C [4]: 88.1%
viability, T/C (second compound 0.316 µM, first compound 0.00316 µM): 116%
viability, T/C (second compound 0.316 µM, first compound 0.01 µM): 90.5%
viability, T/C [7]: 90.7%
viability, T/C [8]: 84.7%
viability, T/C [9]: 103%
viability, T/C [10]: 86%
viability, T/C (second compound 1 µM, first compound 0.00316 µM): 98.7%
viability, T/C (second compound 1 µM, first compound 0.01 µM): 97%
viability, T/C [13]: 90.4%
viability, T/C [14]: 82%
viability, T/C [15]: 89.3%
viability, T/C [16]: 90.9%
viability, T/C (second compound 3.16 µM, first compound 0.00316 µM): 93.2%
viability, T/C (second compound 3.16 µM, first compound 0.01 µM): 94.2%
viability, T/C [19]: 81%
viability, T/C [20]: 81.5%
viability, T/C [21]: 71.4%
viability, T/C [22]: 83.3%
viability, T/C (second compound 10 µM, first compound 0.00316 µM): 93.2%
viability, T/C (second compound 10 µM, first compound 0.01 µM): 94.7%
viability, T/C [25]: 80.7%
viability, T/C [26]: 79.5%
viability, T/C [27]: 77.4%
viability, T/C [28]: 76.3%
